The subject of data set [1] is CCLE NSCLC cell lines. The experiment in a line: Average IC50 and EC50 of selected compounds in PRISM drug screening data. Type of data set: cell-based, human. The settings on record: for EC50 / IC50: PRISM dataset, NSCLC cell lines, outliers (drug concentration value > 10) removed. The text has this:
The drug sensitivity data of human NSCLC cell lines were taken from multiple resources. The secondary PRISM repurposing dataset was obtained from the DepMap release 19Q4. […] A total of 64 NSCLC cell lines from GDSC1 and 58 NSCLC cell lines from GDSC2 were included in this study. Details of the categorization of drug sensitivity in each cell line were included in our previous publications.

In data set [2] the test system is phosphorylated extracellular signal-regulated kinase (pERK). The note with it: patients with locally advanced/metastatic melanoma; clinically relevant doses; phase I; cited from earlier work.
Data set [3] relates to pERK. The note with it: patients with solid tumors; phase I; cited from earlier work.
For data set [4], the system named is human NSCLC A549 and NCI-H358 cells. The settings on record: cited from earlier work.
Data set [5] concerns EGFR and HER2 transactivation. The settings on record: cited from earlier work.
Data set [6] concerns NSCLC H460 cells. The settings on record: in-vitro and in-vivo; cited from earlier work.
The test system of data set [7] is oxidative phosphorylation. The settings on record: mitochondrial protonophore; cited from earlier work.
Data set [8] deals with refractory NSCLC. The note with it: refractory NSCLC patients; open-label phase II; cited from earlier work.
For data set [9], the system named is NSCLC cells. The note with it: cited from earlier work.
In data set [10] the test system is NSCLC cells. The settings on record: cited from earlier work. This is another data set of the same source.
Data set [11] deals with U87MG glioma cells. The note with it: cited from earlier work.
The test system of data set [12] is glioma tumor. The note with it: mouse xenograft model; cited from earlier work.
Data set [13] concerns U2OS and 143B lines. The note with it: cited from earlier work.
Data set [14] concerns Ki-ras-transformed rat fibroblasts. The note with it: concurrent suppression of ERK and mTOR-p70(S6K) pathways; cited from earlier work.
For data set [15], the system named is human breast cancer MDA-MB-231 and HBC-4 cells. The note with it: cited from earlier work.
Data set [16] concerns endogenous promoters containing activator protein 1 (AP-1) response elements. The settings on record: genes lacking an AP-1 response element not affected; cited from earlier work.
Data set [17] has as its system trophoblast. The settings on record: fetal growth restriction; cited from earlier work.
Data set [18] concerns non-progressing NSCLC. The settings on record: maintenance therapy, linsitinib added to erlotinib; cited from earlier work.
Data set [19] concerns NSCLC. The settings on record: linsitinib added to erlotinib, compared with erlotinib alone; cited from earlier work.
Data set [20] has as its system late-stage, metastatic, Kras-mutant NSCLC. The note with it: compared with various combination therapies, chemo-, and immune therapy; cited from earlier work.
[21] abbreviates: BMS-754807 alone, A549 and NCI-H358.
Setting [22] is: induced by addition of ET-1 to NSCLC cells.

Where two headings read alike, the source gives them in different places. Non-standard residues stand in square brackets, D forms with d. Residues, ends and D or L forms follow the SMILES beside them.

Regarding `O=C(NC[C@H](O)CO)c1ccncc1Nc1ccc(I)cc1F` [AS-703026, pimasertib], in data set [1] (Homo sapiens), the half-maximal effective concentration (EC50) (commonly the concentration needed to bring the measured effect to its halfway point) is 940 nM and the half-maximal inhibitory concentration (IC50) – broadly, the concentration needed to halve the response being measured – was 1510 nM. The “pERK in peripheral blood mononuclear cells” value in [2] is given as “inhibition”. The pERK result in [3] is given as “inhibited”.

On to `C[C@@]1(C(=O)Nc2ccc(F)nc2)CCCN1c1nc(Nc2cc(C3CC3)n[nH]2)c2cccn2n1` [BMS-754807], for which, in data set [1] (Homo sapiens), the EC50 was determined as 1020 nM and the IC50 was 1740 nM. In [4] (A549 cells), the “effect on cisplatin and carboplatin” value is reported as “enhanced”. In [4] (setting [21]), the apoptosis entry is “enhanced”; the “cell survival and wound closure” value was “reduced”.

As for `CC(C)C[C@@H]1NC(=O)[C@@H](C(C)C)NC(=O)[C@@H]2CCCN2C(=O)[C@@H](CC(=O)O)NC(=O)[C@@H](Cc2c[nH]c3ccccc23)NC1=O` [BQ-123] (cyclo(L[dW][dD]P[dV])), the “increase in EGFR and HER2 transactivation” value (from here on “increase”) in [5] (setting [22]) was “inhibited”.

For `CNC(=O)[C@H](Cc1c[nH]c2ccccc12)NC(=O)[C@@H](CC(=O)NO)CC(C)C` [GM6001], the “increase” value in data set [5] (setting [22]) is “inhibited”.

For `CS(=O)(=O)CCNCc1ccc(-c2ccc3ncnc(Nc4ccc(OCc5cccc(F)c5)c(Cl)c4)c3c2)o1` [Lapatinib], the “increase” value in data set [5] is listed as “inhibited”.

In data set [1], `N#CC(=C(N)Sc1ccc(N)cc1)c1ccccc1C(F)(F)F` [MEK1-2-inhibitor] displayed an EC50 of 2200 nM and an IC50 of 4200 nM.

Regarding `CN1CC[C@]23c4c5ccc(O)c4O[C@H]2[C@@H](O)C=C[C@H]3[C@H]1C5` [Morphine], the “growth of NSCLC H460 cells” value in [6] is given as “promoted”.

In data set [1], `COc1cccc(-c2cc(=O)c3ccccc3o2)c1N` [PD-98059] yielded a half-maximal effective concentration (EC50) of 607 nM and an IC50 of 4980 nM.

In data set [1], `O=C(NOCC1CC1)c1ccc(F)c(F)c1Nc1ccc(I)cc1Cl` [PD-184352] had an EC50 of 2190 nM and a 50% inhibitory concentration (IC50) of 3990 nM.

In data set [1] (Homo sapiens), `Cc1cc(I)ccc1Nc1c(C(=O)NOCC2CC2)cc(F)c(F)c1F` [PD-198306] returned a concentration for a half-maximal effect (EC50) of 2030 nM and a concentration for half-maximal inhibition (IC50) of 3160 nM. For the same molecule, the oxidative phosphorylation entry in data set [7] is recorded as “uncouples”.

In the case of `O=C(NOC[C@H](O)CO)c1ccc(F)c(F)c1Nc1ccc(I)cc1F` [PD-0325901], in [1], the EC50 was found to be 386 nM and half-maximal inhibition (IC50) was put at 748 nM. Also, the “average IC50 and EC50 values (in words)” value in data set [1] (PRISM drug screening data) is listed as “small”. Besides, the primary endpoint entry in data set [8] is “did not meet”.

With `Cc1ccc(-c2nn(C(C)(C)C)c3ncnc(N)c23)cc1` [PP-1], in data set [1], the EC50 stood at 2080 nM and the IC50 stood at 3410 nM. The “phosphorylation induced by morphine” value in data set [9] is given as “decreased”. Also, in data set [10], the “antiapoptotic impact of morphine” value is recorded as “reversed”.

In data set [1], `CC(C)(C)n1nc(-c2ccc(Cl)cc2)c2c(N)ncnc21` [PP-2] returned an EC50 of 2480 nM and a concentration for half-maximal inhibition (IC50) of 3190 nM. The “increase” value in data set [5] (setting [22]) is recorded as “inhibited”.

As to `COc1ccc(Cl)cc1NC(=O)Nc1cc(C)nc2ccccc12` [PQ-401], in data set [1] (Homo sapiens), the response was half-maximal at 2200 nM (EC50) and the IC50 is 5340 nM. Further, in [11], the apoptosis result is recorded as “induces”; the “in-vitro viability, proliferation, and mobility” value was “inhibits”. In data set [12], the “in-vivo glioma tumor growth” value was “inhibits”. The “osteosarcoma cell proliferation, migration, and colony formation” value in data set [13] is reported as “inhibits”.

In the case of `O=S(=O)(O)c1cc(O)c(O)c(S(=O)(=O)O)c1` [Tiron], the “increase” value in data set [5] (setting [22]) is “inhibited”.

In [1] (Homo sapiens), `N#CC(=C(/N)Sc1ccccc1N)/C(C#N)=C(\N)Sc1ccccc1N` [U-0126] had a 50% effective concentration (EC50) of 1870 nM and an IC50 of 4530 nM. In addition, the anchorage-independent growth result in data set [14] is reported as “inhibits”. Besides, in [15], the sensitivity to anoikis entry was “sensitizes”. The “endogenous promoters containing AP-1 response elements” value in [16] is listed as “inhibits”.

As for `COc1nc(C)cnc1NS(=O)(=O)c1cccnc1-c1ccc(-c2nnco2)cc1` [ZD4054], the “increase” value in data set [5] (setting [22]) is reported as “inhibited”.

As for `COc1cc2ncnc(Nc3ccc(Cl)cc3F)c2cc1OC` [ZM-306416], in data set [1] (Homo sapiens), the midpoint of the response, the EC50, lay at 1080 nM and the IC50 was determined as 2630 nM. For the same molecule, the “trophoblast proliferation and migration” value in data set [17] is “impaired”.

Regarding `COc1cc(Nc2c(C#N)cnc3cc(OCCCN4CCN(C)CC4)c(OC)cc23)c(Cl)cc1Cl` [bosutinib], in data set [1] (Homo sapiens), a half-maximal response (EC50) required 1590 nM and inhibition was half-maximal at 3160 nM (IC50).

Take `Cc1nc(Nc2ncc(C(=O)Nc3c(C)cccc3Cl)s2)cc(N2CCN(CCO)CC2)n1` [dasatinib]: in data set [1] (Homo sapiens), the EC50 was determined as 504 nM and inhibition was half-maximal at 555 nM (IC50).

Take `COc1cc2c(cc1OC)[C@@H]1C(=O)c3ccc4c(c3O[C@@H]1CO2)C=CC(C)(C)O4` [deguelin]: the “antiapoptotic impact of morphine” value in data set [10] is reported as “reversed”.

In [1] (Homo sapiens), `O=C1Nc2ccccc2/C1=C1/Nc2ccccc2C1=O` [indirubin] came in with a concentration giving a half-maximal response (EC50) of 630 nM and an IC50 of 3550 nM.

Take `C[C@]1(O)C[C@@H](c2nc(-c3ccc4ccc(-c5ccccc5)nc4c3)c3c(N)nccn32)C1` [linsitinib]: in [1] (Homo sapiens), a half-maximal effect (EC50) was put at 2090 nM and the half-maximal inhibitory concentration (IC50) is 4250 nM. Besides, the “PFS or OS” value in data set [18] is listed as “did not improve”. The patient outcomes in [19] is recorded as “worse patient outcomes”.

Consider `C[N@+]1(CC2CC2)CC[C@]23c4c5ccc(O)c4O[C@H]2C(=O)CC[C@@]3(O)[C@H]1C5` [methylnaltrexone], for which, in data set [9], the “phosphorylation induced by morphine” value is given as “decreased”. The “antiapoptotic impact of morphine” value in data set [10] is “reversed”.

In data set [1] (Homo sapiens), `CN1CCN(CCOc2cc(OC3CCOCC3)c3c(Nc4c(Cl)ccc5c4OCO5)ncnc3c2)CC1` [saracatinib] yielded an EC50 of 983 nM and an IC50 of 1730 nM.

On to `Cn1cnc2c(F)c(Nc3ccc(Br)cc3Cl)c(C(=O)NOCCO)cc21` [selumetinib], for which, in data set [1] (Homo sapiens), the EC50 stood at 647 nM and half-maximal inhibition (IC50) was put at 2210 nM. Moreover, in data set [20], the “safety profile in treating NSCLC” value is “better safety profile”.

The record behind these values is patent US20240200147A1, “Non-Small Cell Lung Cancer Diagnosis and Treatment” (West Virginia University Board of Governors on Behalf of …, priority 2022, published 2024).
